Results: patent US6737383B1, “Herbicidal oxadiazolidines” (priority 1999, dated 2004)

Experiments:
pigweed = assay: Test B pre/postemergence pigweed; assay type: in vivo, Amaranthus retroflexus
In short: (§1)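 Test chemicals in a non-phytotoxic solvent mixture with surfactant were sprayed preemergence onto planted seeds and postemergence onto plants 2 to 18 cm tall (1- to 4-leaf stage). After twelve to sixteen days in a greenhouse, injury was visually rated against untreated controls from 0 (no effect) to 10 (complete control).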

giant foxtail = assay: Test B pre/postemergence giant foxtail; assay type: in vivo, Setaria faberii
In short: as §1

cocklebur = assay: Test B pre/postemergence cocklebur; assay type: in vivo, Xanthium strumarium
In short: as §1

rice = assay: Test B flood test rice; assay type: in vivo, Oryza sativa
In short: (§2)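 Read-out is a visual response score from 0 (no effect) to 10 (complete control), assigned by comparison with untreated controls. Treatment was applied at the 2-leaf stage, and plants stayed in the greenhouse for twelve to sixteen days before scoring.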

blackgrass = assay: Test B pre/postemergence blackgrass; assay type: in vivo, Alopecurus myosuroides
In short: as §1

sugar beet = assay: Test B pre/postemergence sugar beet; assay type: in vivo, Beta vulgaris
In short: as §1

morningglory = assay: Test B pre/postemergence morningglory; assay type: in vivo, Ipomoea hederacea
In short: as §1

velvetleaf = assay: Test B pre/postemergence velvetleaf; assay type: in vivo, Abutilon theophrasti
In short: as §1

surinam grass = assay: Test B pre/postemergence surinam grass; assay type: in vivo, Brachiaria decumbens
In short: as §1

purple nutsedge = assay: Test B pre/postemergence purple nutsedge; assay type: in vivo, Cyperus rotundus
In short: as §1

wheat = assay: Test B pre/postemergence wheat; assay type: in vivo, Triticum aestivum
In short: as §1

bamyardgrass = assay: Test B flood test barnyardgrass; assay type: in vivo, Echinochloa crus-galli
In short: as §2

duck salad = assay: Test B flood test duck salad; assay type: in vivo, Heteranthera limosa
In short: as §2

bedstraw = assay: Test B pre/postemergence bedstraw; assay type: in vivo, Galium aparine
In short: as §1

crabgrass = assay: Test B pre/postemergence crabgrass; assay type: in vivo, Digitaria sanguinalis
In short: as §1

wild oat = assay: Test B pre/postemergence wild oat; assay type: in vivo, Avena fatua
In short: as §1

[1] = Postemergence, Rate 62 g/ha, scale of 0 to 10, 0 is no effect, 10 is complete control
[2] = Postemergence, Rate 125 g/ha, scale 0 to 10, 0 is no effect, 10 is complete control
[3] = Postemergence, Rate 500 g/ha, scale 0 to 10, 0 is no effect, 10 is complete control
[4] = Preemergence, Rate 62 g/ha, scale 0 to 10 (0 no effect, 10 complete control)
[5] = Preemergence, Rate 125 g/ha, scale 0 to 10, 0 is no effect, 10 is complete control
[6] = Preemergence, Rate 500 g/ha, scale of 0 to 10 where 0 is no effect and 10 is complete control
[7] = Rate 250 g/ha, Postemergence, scale of 0 to 10 where 0 is no effect and 10 is complete control
[8] = Rate 62 g/ha, flood test species, Pre-emergence, visual evaluation after twelve to sixteen days
[9] = Rate 125 g/ha, under heading Pre-emergence, flood test species, visual evaluation after twelve to sixteen days
[10] = Rate 250 g/ha, Pre-emergence (flood test species), scale 0 to 10, 0 is no effect, 10 is complete control
[11] = Rate 500 g/ha, Pre-emergence section of Table B, 0 to 10 scale (0 no effect, 10 complete control)

CC(C)N(C(=O)n1oc(=O)n(CC2CCC2)c1=O)c1ccc(Cl)cc1 [Compound 550]
6: Giant foxtail plant response rating (giant foxtail; [2]) | B. signalgrass plant response rating (surinam grass; [4]) | Nutsedge plant response rating (purple nutsedge; [6])
10: Redroot pigweed plant response rating (pigweed; [6]) | Giant foxtail plant response rating (0 to 10 scale) (giant foxtail; Preemergence, Rate 250 g/ha) | Giant foxtail plant response rating (giant foxtail; [6]) | B. signalgrass plant response rating (surinam grass; [6]) | Crabgrass plant response rating (crabgrass; [5]) | Crabgrass plant response rating (0 to 10 scale) (crabgrass; Preemergence, Rate 250 g/ha) | Crabgrass plant response rating (crabgrass; [6]) | Plant response rating, Crabgrass (crabgrass; [7])
0: Redroot pigweed plant response rating (pigweed; [1]) | Redroot pigweed plant response rating (pigweed; [2]) | Plant response rating, Redroot pigweed (pigweed; [3]) | Plant response rating, Redroot pigweed (pigweed; [7]) | Cocklebur plant response rating (cocklebur; [1]) | Cocklebur plant response rating (cocklebur; [2]) | Cocklebur plant response rating (cocklebur; [4]) | Cocklebur plant response rating (cocklebur; [5]) | Cocklebur plant response rating (0 to 10 scale) (cocklebur; Preemergence, Rate 250 g/ha) | Cocklebur plant response rating (cocklebur; [6]) | Plant response rating, Rice (0 to 10 scale, 0 is no effect, 10 is complete control) (rice; [8]) | Rice plant response rating (0 to 10 scale, 0 is no effect, 10 is complete control) (rice; [9]) | Rice plant response rating (rice; [10]) | Rice plant response rating (rice; [11]) | Blackgrass plant response rating (blackgrass; [1]) | Blackgrass plant response rating (blackgrass; [2]) | Blackgrass plant response rating (blackgrass; [4]) | Sugarbeets plant response rating (sugar beet; [1]) | Sugarbeets plant response rating (sugar beet; [2]) | Sugarbeets plant response rating (sugar beet; [4]) | Sugarbeets plant response rating (sugar beet; [5]) | Morningglory plant response rating (morningglory; [4]) | Morningglory plant response rating (morningglory; [5]) | Morningglory plant response rating (0 to 10 scale) (morningglory; Preemergence, Rate 250 g/ha) | Morningglory plant response rating (morningglory; [6]) | Velvetleaf plant response rating (velvetleaf; [1]) | Velvetleaf plant response rating (velvetleaf; [2]) | Velvetleaf plant response rating (velvetleaf; [4]) | Velvetleaf plant response rating (velvetleaf; [5]) | Plant response rating, Velvetleaf (velvetleaf; [7]) | B. signalgrass plant response rating (surinam grass; [1]) | B. signalgrass plant response rating (surinam grass; [2]) | Nutsedge plant response rating (purple nutsedge; [1]) | Nutsedge plant response rating (purple nutsedge; [2]) | Nutsedge plant response rating (purple nutsedge; [4]) | Nutsedge plant response rating (purple nutsedge; [5]) | Nutsedge plant response rating (0 to 10 scale) (purple nutsedge; Preemergence, Rate 250 g/ha) | Plant response rating, Nutsedge (purple nutsedge; [7]) | Wheat plant response rating (wheat; [1]) | Wheat plant response rating (wheat; [2]) | Plant response rating, Wheat (wheat; [3]) | Wheat plant response rating (wheat; [4]) | Plant response rating, Wheat (wheat; [7]) | Plant response rating, Barnyardgrass (0 to 10 scale, 0 is no effect, 10 is complete control) (bamyardgrass; [8]) | Barnyardgrass plant response rating (0 to 10 scale, 0 is no effect, 10 is complete control) (bamyardgrass; [9]) | Barnyardgrass plant response rating (bamyardgrass; [10]) | Barnyardgrass plant response rating (bamyardgrass; [11]) | Plant response rating, Ducksalad (0 to 10 scale, 0 is no effect, 10 is complete control) (duck salad; [8]) | Ducksalad plant response rating (0 to 10 scale, 0 is no effect, 10 is complete control) (duck salad; [9]) | Ducksalad plant response rating (duck salad; [10]) | Ducksalad plant response rating (duck salad; [11]) | Bedstraw plant response rating (bedstraw; [1]) | Bedstraw plant response rating (bedstraw; [2]) | Plant response rating, Bedstraw (bedstraw; [3]) | Bedstraw plant response rating (bedstraw; [4]) | Bedstraw plant response rating (bedstraw; [5]) | Bedstraw plant response rating (0 to 10 scale) (bedstraw; Preemergence, Rate 250 g/ha) | Plant response rating, Bedstraw (bedstraw; [7]) | Wild oats plant response rating (wild oat; [1]) | Wild oats plant response rating (wild oat; [4]) | Wild oats plant response rating (wild oat; [5])
5: Plant response rating, Sugarbeets (sugar beet; [3]) | Sugarbeets plant response rating (0 to 10 scale) (sugar beet; Preemergence, Rate 250 g/ha)
4: Velvetleaf plant response rating (velvetleaf; [6]) | Crabgrass plant response rating (crabgrass; [4]) | Plant response rating, Wild oats (wild oat; [7])
3: Bedstraw plant response rating (bedstraw; [6]) | Plant response rating, Wild oats (wild oat; [3])
9: Redroot pigweed plant response rating (pigweed; [5]) | Redroot pigweed plant response rating (0 to 10 scale) (pigweed; Preemergence, Rate 250 g/ha) | Plant response rating, Giant foxtail (giant foxtail; [3]) | Giant foxtail plant response rating (giant foxtail; [5]) | Plant response rating, Giant foxtail (giant foxtail; [7]) | Blackgrass plant response rating (blackgrass; [6]) | Plant response rating, Morningglory (morningglory; [7]) | B. signalgrass plant response rating (surinam grass; [5]) | B. signalgrass plant response rating (0 to 10 scale, 0 is no effect, 10 is complete control) (surinam grass; Preemergence, Rate 250 g/ha)
7: Redroot pigweed plant response rating (pigweed; [4]) | Giant foxtail plant response rating (giant foxtail; [4]) | Blackgrass plant response rating (0 to 10 scale) (blackgrass; Preemergence, Rate 250 g/ha) | Crabgrass plant response rating (crabgrass; [2])
8: Sugarbeets plant response rating (sugar beet; [6]) | Plant response rating, Morningglory (morningglory; [3]) | Wild oats plant response rating (wild oat; [6])
1: Plant response rating, Cocklebur (cocklebur; [7]) | Morningglory plant response rating (morningglory; [1]) | Morningglory plant response rating (morningglory; [2])
2: Giant foxtail plant response rating (giant foxtail; [1]) | Plant response rating, Cocklebur (cocklebur; [3]) | Plant response rating, Blackgrass (blackgrass; [3]) | Blackgrass plant response rating (blackgrass; [5]) | Plant response rating, Blackgrass (blackgrass; [7]) | Plant response rating, Sugarbeets (sugar beet; [7]) | Plant response rating, Velvetleaf (velvetleaf; [3]) | Velvetleaf plant response rating (0 to 10 scale) (velvetleaf; Preemergence, Rate 250 g/ha) | Plant response rating, B. signalgrass (surinam grass; [3]) | Plant response rating, B. signalgrass (surinam grass; [7]) | Plant response rating, Nutsedge (purple nutsedge; [3]) | Wheat plant response rating (wheat; [5]) | Wheat plant response rating (0 to 10 scale) (wheat; Preemergence, Rate 250 g/ha) | Wheat plant response rating (wheat; [6]) | Wild oats plant response rating (wild oat; [2]) | Wild oats plant response rating (0 to 10 scale) (wild oat; Preemergence, Rate 250 g/ha)
